According to US9359346B2, “Benzamide derivative and use thereof” (VIVOZON, INC., priority 2011, dated 2016):
Like-named read-outs stand apart in the source and are kept apart here.

Assays:
5HT2A = 5HT2A (Homo sapiens, UniProt P28223); test: FLIPR calcium assay for 5HT2A target activity (transfected HEK293 cells); type: cell-based
GlyT2 = biological target: T1, GlyT2 (Rattus norvegicus, UniProt P58295); test: FLIPR membrane potential assay for GlyT2 target activity (T-rex-293-rGlyT2 cells); type: cell-based; conditions: for inhibition at 10 µM: read-out: GlyT2 % inhibition
T1 construct: expressed in transfected cells
T1 sequence (P58295 1-799): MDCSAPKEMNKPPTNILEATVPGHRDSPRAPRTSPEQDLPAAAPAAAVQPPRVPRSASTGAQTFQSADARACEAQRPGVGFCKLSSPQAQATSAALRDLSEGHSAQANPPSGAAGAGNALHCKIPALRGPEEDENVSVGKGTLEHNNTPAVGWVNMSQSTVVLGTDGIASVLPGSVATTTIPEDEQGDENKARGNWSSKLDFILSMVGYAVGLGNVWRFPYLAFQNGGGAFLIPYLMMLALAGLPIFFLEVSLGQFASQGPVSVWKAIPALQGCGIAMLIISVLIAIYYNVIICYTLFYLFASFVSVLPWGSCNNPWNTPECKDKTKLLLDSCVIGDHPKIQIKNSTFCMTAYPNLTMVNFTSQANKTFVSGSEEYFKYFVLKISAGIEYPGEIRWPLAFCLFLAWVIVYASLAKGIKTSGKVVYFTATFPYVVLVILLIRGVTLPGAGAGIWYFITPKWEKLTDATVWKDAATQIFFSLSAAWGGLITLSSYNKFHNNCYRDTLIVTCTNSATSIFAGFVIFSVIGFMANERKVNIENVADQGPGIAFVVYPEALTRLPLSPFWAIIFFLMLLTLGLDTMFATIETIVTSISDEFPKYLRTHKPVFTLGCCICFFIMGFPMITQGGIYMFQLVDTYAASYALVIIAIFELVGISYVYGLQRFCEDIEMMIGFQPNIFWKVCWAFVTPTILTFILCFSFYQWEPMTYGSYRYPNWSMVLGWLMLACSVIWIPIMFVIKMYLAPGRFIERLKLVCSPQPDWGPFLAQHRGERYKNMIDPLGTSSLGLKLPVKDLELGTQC
Method: GlyT2 (Glycine transporter type 2) is an electrogenic carrier associated with Na^+/Cl^− ion transportation, primarily distributed around the spinal cord part, and has an important role in the transfer of a pain signal in the spinal cord.
In order to identify the fact that the novel compound of the present invention has GlyT2 targeting activity, a membrane potential assay was performed. FLIPR Membrane Potential Assay is used to measure ion channel modulation caused by an increase or decrease in fluorescence signal due to variations of cellular membrane potential.
First, pcDNA4/TO vector encoding GlyT2 of the rat in HEK293 cell was transfected to prepare a stable recombinant cell line, i.e., T-rex-293-rGlyT2. A […] (Greiner #655090) coated with poly-D-lysine was prepared, and the above recombinant cells (T-rex-293-rGlyT2) were seeded at 3.2×10^4/well therein using a medium containing 15 μg/ml of tetracycline. After this, incubation was conducted at 37° C. for 48 hours under 5% CO2 conditions to express GlyT2. 10 ml of assay buffer (1×HBSS, 20 mM HEPES, pH 7.4) was added to a blue dye solution and sufficiently dissolved therein to prepare a membrane potential dye solution. After removing the medium from the well showing GlyT2 expression, the membrane potential dye solution was added to the well in an amount of 100 μl/well and incubated for 20 minutes.
According to the FLIPR Membrane Potential Assay kit's protocol, SoftMax Pro Software of FlexStation 3 software (Molecular Devices, US) was set up. An extent of GlyT2 expression was determined such that the extent of cellular membrane depolarization relative to an administered amount of glycine during glycine treatment is indicated in relative fluorescence units (RFU), and RFU (Max-Min) is calculated by subtracting the minimum value from the maximum value of RFU. After firstly treating 10 uM of the novel compound according to the present invention, glycine was treated and RFU (Max-Min) for glycine administration was determined. Then, with the determined result, the extent of depolarization inhibition (% inhibition) was assessed for each compound, compared to a positive control.
The positive control used herein was ORG25543 (500 nM) having strong inhibitory efficacy specific to GlyT2.
For GlyT2 inhibitory efficacy, the efficacy of the compound ORG25543 (500 nM) was defined as 100%. Similarly, for 5HT2A inhibitory efficacy, the efficacy of MDL11939 (100 nM) was defined as 100%. Therefore, the target inhibitory efficacy of each compound was indicated in a relative value compared to the above defined efficacy.

[1] = system: neuropathic pain model (Chung model); test: Neuropathic pain model (Chung model, SNL), paw withdrawal threshold; type: in vivo, rat; conditions: subcutaneous 50 mg/kg or oral 100 mg/kg; gabapentin 55 to 70 mg/kg intraperitoneal; FIGS. 1 to 22
[2] = HEK293, read-out: 5HT2A % inhibition
[3] = HEK293, 10 uM compound, then serotonin, relative to MDL11939 (100 nM) defined as 100%, read-out: 5HT2A % inhibition
[4] = 10 uM compound, then glycine, relative to ORG25543 (500 nM) defined as 100%

Sequence of 5HT2A (P28223 whole entry, species assumed): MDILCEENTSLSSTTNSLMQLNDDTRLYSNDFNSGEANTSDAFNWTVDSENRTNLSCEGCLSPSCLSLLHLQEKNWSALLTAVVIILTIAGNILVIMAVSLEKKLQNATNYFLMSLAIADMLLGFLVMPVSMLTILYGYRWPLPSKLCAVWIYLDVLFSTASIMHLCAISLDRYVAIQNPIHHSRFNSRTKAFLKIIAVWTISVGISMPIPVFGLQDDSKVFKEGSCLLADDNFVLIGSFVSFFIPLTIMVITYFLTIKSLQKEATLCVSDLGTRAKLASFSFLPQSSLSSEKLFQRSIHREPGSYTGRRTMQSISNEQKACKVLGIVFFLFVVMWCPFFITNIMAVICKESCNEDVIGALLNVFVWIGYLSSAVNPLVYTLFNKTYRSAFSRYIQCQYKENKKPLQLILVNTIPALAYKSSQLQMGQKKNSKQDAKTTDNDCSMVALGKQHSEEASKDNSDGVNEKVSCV

Structure (SMILES)	inhibition at 10 µM (5HT2A; [2]) [%]	inhibition at 10 µM (GlyT2) [%]	inhibition at 10 µM (GlyT2; [4]) [%]	further results
CCCCOc1c(OC)cc(C(=O)NCC(c2ccccc2)N(C)C)cc1OC (stereo not drawn) [VVZ-033]	97.1	105	–	–
COc1cc(C(=O)NCC2(N(C)C)CCCCC2)cc(OC)c1OCc1ccccc1 [VVZ-037]	99.8	100	–	–
Cc1cc(C(=O)NCC2(O)CCN(C)CC2)cc(C)c1OCc1ccccc1 [VVZ-054]	–	–	82.9	inhibition at 10 µM (5HT2A; [3]): 57.1%
COc1cc(C(=O)NCC(c2ccccc2)N(C)C)cc(OC)c1OCc1ccccc1 (stereo not drawn) [VVZ-020]	94.1	103	–	–
CN(C)C(CNC(=O)c1ccc(OCc2ccccc2)cc1)c1ccccc1 (stereo not drawn) [VVZ-051]	95	110	–	–
CCCCOc1c(OC)cc(C(=O)Nc2nnc(C)s2)cc1OC [VVZ-025]	–	–	–	analgesic efficacy compared to GBP positive control [1]: analgesic efficacy substantially equal to 0 °C superior to GBP
CN(C)C1(CNC(=O)c2ccc(OCc3ccccc3)cc2)CCOCC1 [VVZ-065]	–	–	–	5HT2A % inhibition (5HT2A): 107.8%; GlyT2 % inhibition (GlyT2): 105.1%
COc1cc(C(=O)NCC2(N(C)C)CCC(F)(F)CC2)cc(OC)c1OCc1ccccc1 [VVZ-016]	97.5	109	–	–
CCCCOc1c(OC)cc(C(=O)NCC2(N3CCN(C)CC3)CCCCC2)cc1OC [VVZ-032]	–	–	–	analgesic efficacy compared to GBP positive control [1]: analgesic efficacy substantially equal to 0 °C superior to GBP
COc1cc(C(=O)NCC2(N(C)C)CCOCC2)cc(OC)c1OCc1ccccc1 [VVZ-036]	66.1	103	–	–
CN(C)C1(CNC(=O)c2cccc(C(F)(F)F)c2)CCC(F)(F)CC1 [VVZ-062]	–	–	–	analgesic efficacy compared to GBP positive control [1]: analgesic efficacy substantially equal to 0 °C superior to GBP
CN(C)C(CNC(=O)c1cccc(C(F)(F)F)c1)c1ccccc1 (stereo not drawn) [VVZ-078]	–	–	–	analgesic efficacy compared to GBP positive control [1]: analgesic efficacy substantially equal to 0 °C superior to GBP
CCN(C)C1(CNC(=O)c2cc(OC)c(OCc3ccccc3)c(OC)c2)CC=C(F)CC1 (stereo not drawn) [VVZ-050]	–	–	117	inhibition at 10 µM (5HT2A; [3]): 108%
COc1cc(C(=O)NCC(=O)N2CCC(C)CC2)cc(OC)c1OCc1ccccc1 [VVZ-040]	–	–	–	analgesic efficacy compared to GBP positive control [1]: analgesic efficacy substantially equal to 0 °C superior to GBP
COc1cc(C(=O)NCC(c2ccccc2)N(C)C)cc(OC)c1OCc1ccccc1 (stereo not drawn) [VVZ-010]	–	–	–	5HT2A % inhibition (5HT2A): 108.1%; GlyT2 % inhibition (GlyT2): 102.5%
COc1cc(C(=O)N[C@@H]2CCN(Cc3ccccc3)C2)cc(OC)c1OCc1ccccc1 [VVZ-011]	–	–	88.8	inhibition at 10 µM (5HT2A; [3]): 56.2%
COc1cc(C(=O)NCCN2CCOCC2)cc(OC)c1OCc1ccccc1 [VVZ-006]	89.8	–	48.9	–
O=C(c1cccc(C(F)(F)F)c1)N1CCN(CCc2ccccc2)CC1 [VVZ-042]	–	–	34.4	inhibition at 10 µM (5HT2A; [3]): 107%
CN1CCN(C2(CNC(=O)c3ccc(OCc4ccccc4)cc3)CCCCC2)CC1 [VVZ-069]	150	83.9	–	–
COc1cc(C(=O)NCC2(N3CCN(C)CC3)CCOCC2)cc(OC)c1OCc1ccccc1 [VVZ-071]	60.8	78.8	–	–
COc1cc(N)c(Cl)cc1C(=O)N[C@H]1CN2CCC1CC2 [VVZ-047]	–	–	23.4	inhibition at 10 µM (5HT2A; [3]): 78.8%
COc1cc(C(=O)NCC2(NCc3ccccc3)CCOCC2)cc(OC)c1OCc1ccccc1 [VVZ-084]	–	–	79	inhibition at 10 µM (5HT2A; [3]): 94.4%
